The numbers were not newly measured in US20100241197A1, “METHODS OF USING NITROXIDES IN CONJUNCTION WITH PHOTOSENSITIZERS AND SONOSENSITIZERS” (Mitos Pharmaceuticals, Inc., priority 2003, published 2010), which cites them from elsewhere.

Experiment in data set [1]: not given
The source holds these as a separate data set.

For data set [2] the following is noted: relative to PHOTOFRIN
The next data set has as its system tumor. The following applies: in vivo.

Where two headings read alike, the source gives them in different places.

Regarding `CCOC(=O)C1=Cc2c3nc(cc4nc(cc5[n-]c(cc6[n-]c2c(C)c6CC)c(C)c5CC)C(C)=C4CC)[C@@H](C)[C@]13CC.[Cl-].[Cl-].[Sn]` (racemic) [SnET2, tin etiopurpurin], the extinction coefficient (at 700 nm) is listed as 40 000 M-1 cm-1.

As for `C=Cc1c(C)c2cc3nc(c(CC(=O)N[C@@H](CC(=O)[O-])C(=O)[O-])c4[nH]c(cc5nc(cc1[nH]2)C(C)=C5CC)c(C)c4C(=O)[O-])[C@@H](CCC(=O)[O-])[C@@H]3C.[Na+].[Na+].[Na+].[Na+]` [Npe6, Mono-L-aspartyl chlorin e6], in data set [1], the “solubility in water / aqueous solutions” value is “highly water soluble”. The extinction coefficient (absorbance peak at 654 nm) was 40 000 M-1 cm-1.

Take `Oc1cccc(-c2c3nc(c(-c4cccc(O)c4)c4ccc([nH]4)c(-c4cccc(O)c4)c4nc(c(-c5cccc(O)c5)c5ccc2[nH]5)CC4)C=C3)c1` [m-THPC, Meta-tetra hydroxyphenyl chlorin]: in data set [2], the “skin photosensitivity compared with PHOTOFRIN” value is recorded as “only slightly less”.

For “benzoporphyrin derivative mono-acid A [BPD]”, the extinction coefficient (absorbance peak at 650 nm) is given as 34 000 M-1 cm-1. In addition, the tumor accumulation entry in the data set on tumor is recorded as “rapid tumor accumulation”.
